Data on three molecules can be found in patent publication US8067395B2, “Inhibitors of tyrosine kinases and uses thereof” (Pharmacyclics, Inc., priority 2006, dated 2011).

The target in this experiment is Btk (Homo sapiens, UniProt Q06187). Nature of the experiment: Btk TR-FRET kinase inhibition assay. The format is biochemical. The following applies: pH 7.4, ATP at the Km for the kinase, 1 μM peptide substrate, [Btk]total=0.5 nM, read-out: Btk-TRFRET (Ki). On the procedure:
Suitable in vitro assays for measuring kinase activity and the inhibition thereof by compounds are known (e.g., see Kuzmic et al. Anal. Biochem. 2000, 286, 45-50).
The following protocol represents an assay for determination of inhibition of kinases under physiological conditions (pH 7.4). Kinase activity was determined using a time-resolved fluorescence resonance energy transfer (TR-FRET) methodology. Measurements were performed in a reaction volume of 50 μL using 96-well assay plates. Kinase enzyme, inhibitor, ATP (at the Km for the kinase), and 1 μM peptide substrate (Biotin-AVLESEEELYSSARQ-NH2) were incubated in a reaction buffer composed of 20 mM Tris, 50 mM NaCl, MgCl2 (5-25 mM depending on the kinase), 1 mM DTT, 0.1 mM EDTA, 0.01% bovine serum albumin, 0.005% Tween-20, and 10% DMSO at pH 7.4 for one hour. The reaction was quenched by the addition of 1.2 equivalents of EDTA (relative to Mg^2+) in 25 μL of 1× Lance buffer (Perkin-Elmer). Streptavidin-APC (Perkin-Elmer) and Eu-labeled p-Tyr100 antibody (Perkin-Elmer) in 1× Lance buffer were added in a 25 μL volume to give final concentrations of 100 nM and 2.5 nM, respectively, and the mixture was allowed to incubate for one hour. The TR-FRET signal was measured on a multimode plate reader with an excitation wavelength of 330 nm and detection wavelengths of 615 nm and 665 nm. Activity was determined by the ratio of the fluorescence at 665 nm to that at 615 nm. For each compound, enzyme activity was measured at various concentrations of compound. Negative control reactions were performed in the absence of inhibitor in replicates of six, and two no-enzyme controls were used to determine baseline fluorescence levels. Inhibition constants were obtained using the program BatchKi (Kuzmic et al. Anal. Biochem. 2000, 286, 45-50). IC50s were obtained according to this equation: IC50={Ki(app)/(1+[ATP]/Km^ATP)}+[E]total/2; for all kinases, [ATP]=Km^ATP, [Btk]total=0.5 nM and [Lck]total=6 nM.

Chain of Btk (Q06187 whole entry): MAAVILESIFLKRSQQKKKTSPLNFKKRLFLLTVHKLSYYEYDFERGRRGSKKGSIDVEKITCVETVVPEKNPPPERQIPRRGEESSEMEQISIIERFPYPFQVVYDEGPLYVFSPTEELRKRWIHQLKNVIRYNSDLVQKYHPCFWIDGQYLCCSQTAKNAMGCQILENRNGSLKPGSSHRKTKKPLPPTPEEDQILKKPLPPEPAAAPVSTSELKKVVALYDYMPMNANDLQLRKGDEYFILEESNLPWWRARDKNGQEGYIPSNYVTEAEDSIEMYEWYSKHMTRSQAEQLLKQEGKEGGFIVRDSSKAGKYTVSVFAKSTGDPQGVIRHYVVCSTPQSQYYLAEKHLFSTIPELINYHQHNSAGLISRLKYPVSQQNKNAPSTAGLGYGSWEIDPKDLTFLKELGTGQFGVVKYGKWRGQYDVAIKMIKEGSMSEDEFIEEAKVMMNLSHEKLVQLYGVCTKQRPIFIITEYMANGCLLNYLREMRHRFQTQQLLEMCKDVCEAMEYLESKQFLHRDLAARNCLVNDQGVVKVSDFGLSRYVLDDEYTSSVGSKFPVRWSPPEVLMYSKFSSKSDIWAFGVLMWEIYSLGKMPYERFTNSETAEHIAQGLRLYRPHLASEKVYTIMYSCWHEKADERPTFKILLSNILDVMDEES

As a reminder, the Ki is the dissociation constant of the complex between target and ligand, obtained from inhibition or displacement. For `COc1ccccc1C(=O)NN=Cc1[nH]c(=O)c2c(ccc3nc(Nc4c(Cl)cccc4Cl)n(C)c32)c1C` [Compound 49, 2-methoxy-benzoic acid [2-(2,6-dichlorophenylamino)-1,6-dimethyl-9-oxo-8,9-dihydro-1H-imidazo[4,5-h]isoquinolin-7-ylmethylene]-hydrazide], the Ki lay in the range of 100 to 1000 nM. With `Cc1cc(F)ccc1Nc1nc2ccc3c(CC(=O)N4CCP(=O)(c5ccc(F)cc5)CC4)c(C)[nH]c(=O)c3c2n1C` [Compound 50, 2-(4-fluoro-2-methylphenylamino)-1,7-dimethyl-6-{2-[4-(4-fluorophenyl)-4-oxo-4λ^5[1,4]azaphosphinan-1-yl]-2-oxoethyl}-1,8-dihydro-imidazo[4,5-h]isoquinolin-9-one] the figure was 100 to 1000 nM. For `CCC[C@@H](C=CS(=O)(=O)c1ccccc1)NC(=O)Cc1c(C)[nH]c(=O)c2c1ccc1nc(Nc3ccc(F)cc3C)n(C)c12` [Compound 51, (S)-2-(4-fluoro-2-methylphenylamino)-1,7-dimethyl-6-{N-[1-(phenylsulfonyl)hex-1-en-3-yl]-amino-2-oxoethyl}-1,8-dihydro-imidazo[4,5-h]isoquinolin-9-one], the Ki lay within 100 to 1000 nM.
